The values below come from patent US12195450B2, “Small molecule neutral sphingomyelinase 2 (nSMase2) inhibitors” (The Johns Hopkins University, priority 2019, dated 2025).

Each structure is given as a SMILES string. Structures can show the parent of a compound that is named as a salt.

For this experiment, the target named is T1, nSMase2 (Homo sapiens, UniProt Q9NY59).
T1 sequence (Q9NY59 1-655): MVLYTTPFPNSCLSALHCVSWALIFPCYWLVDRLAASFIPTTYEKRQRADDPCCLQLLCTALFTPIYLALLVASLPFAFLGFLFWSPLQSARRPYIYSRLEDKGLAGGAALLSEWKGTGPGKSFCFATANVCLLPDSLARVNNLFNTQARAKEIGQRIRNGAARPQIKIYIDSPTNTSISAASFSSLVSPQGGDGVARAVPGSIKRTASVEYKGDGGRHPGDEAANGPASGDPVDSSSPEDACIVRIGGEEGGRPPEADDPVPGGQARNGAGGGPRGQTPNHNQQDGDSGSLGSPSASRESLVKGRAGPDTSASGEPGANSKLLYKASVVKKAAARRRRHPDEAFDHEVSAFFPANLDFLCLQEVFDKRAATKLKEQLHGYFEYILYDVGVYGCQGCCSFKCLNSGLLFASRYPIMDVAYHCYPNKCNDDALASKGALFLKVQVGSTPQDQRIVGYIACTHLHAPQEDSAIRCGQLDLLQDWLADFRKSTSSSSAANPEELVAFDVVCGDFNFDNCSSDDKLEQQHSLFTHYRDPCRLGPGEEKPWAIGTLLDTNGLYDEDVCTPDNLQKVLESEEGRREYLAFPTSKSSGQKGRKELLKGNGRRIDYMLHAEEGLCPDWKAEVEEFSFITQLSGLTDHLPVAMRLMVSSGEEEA
As to the kind of experiment: Inhibition of nSMase2 (IC50). In kind it is biochemical.

The mark [1] stands for this setting: Table 1, Representative Inhibitors of nSMase2 of Formula (I).

On to `COc1cc(-c2ncc[nH]2)cc(OC)c1O` [Compound 18, 4-(1H-imidazol-2-yl)-2,6-dimethoxyphenol], for which 400 nM corresponded to half-maximal inhibition under setting [1] (IC50) and half-maximal inhibition (Table 2, Inhibition of nSMase) (IC50) required 400 nM. For `COc1cc(-c2nc(C)c(C)[nH]2)cc(OC)c1O` [Compound 19, 4-(4,5-dimethyl-1H-imidazol-2-yl)-2,6-dimethoxyphenol hydrochloride], the IC50 – broadly, the midpoint of a concentration-inhibition curve – by setting is: under setting [1], 500 nM; (Table 2, Inhibition of nSMase) 500 nM. As for `COc1cc(-c2nc3c([nH]2)CCCC3)cc(OC)c1O` [Compound 20, 2,6-dimethoxy-4-(4,5,6,7-tetrahydro-1H-benzo[d]imidazol-2-yl)phenol], the midpoint of inhibition under setting [1], the IC50, lay at 400 nM and the midpoint of inhibition (Table 2, Inhibition of nSMase), the IC50, lay at 400 nM. For `CC(C)Oc1cc(-c2nc(-c3ccccc3)c(-c3cccs3)[nH]2)cc(OC(C)C)c1O` [Compound 22, 2,6-diisopropoxy-4-(4-phenyl-5-(thiophen-2-yl)-1H-imidazol-2-yl)phenol], the IC50 by setting is: under setting [1], 20 nM; (Table 2, Inhibition of nSMase) 30 nM. Under “Table 2, Inhibition of nSMase”, `COc1cc(-c2ncc(-c3ccccc3)[nH]2)cc(OC)c1O` [Compound 23, 2,6-dimethoxy-4-(5-phenyl-1H-imidazol-2-yl)phenol hydrochloride] had an IC50 of 70 nM. Turning to `COc1cc(-c2ncc(C)[nH]2)cc(OC)c1O` [Compound 24, 2,6-dimethoxy-4-(5-methyl-1H-imidazol-2-yl)phenol], the IC50 was 200 nM under setting [1] and 200 nM (Table 2, Inhibition of nSMase).

Where the note is “Table 2, Inhibition of nSMase”, `COc1cc(-c2nc(-c3ccccc3)c(-c3ccccc3)[nH]2)cc(OC)c1O` [Compound 25, 4-(4,5-diphenyl-1H-imidazol-2-yl)-2,6-dimethoxyphenol] had an IC50 of 20 nM. This lies in the double-digit nanomolar range. Take `COc1cc(-c2ncc(-c3ccc(Br)cc3)[nH]2)cc(OC)c1O` [Compound 26, 4-(5-(4-bromophenyl)-1H-imidazol-2-yl)-2,6-dimethoxyphenol]: the IC50 reads like this: under setting [1], 200 nM; (Table 2, Inhibition of nSMase) 200 nM. As to `COc1cc(-c2nc(-c3cccs3)c(-c3cccs3)[nH]2)cc(OC)c1O` [Compound 27, 4-(4,5-di(thiophen-2-yl)-1H-imidazol-2-yl)-2,6-dimethoxyphenol], the IC50 under setting [1] was determined as 20 nM. As for `COc1ccc(-c2nc(-c3cc(OC)c(O)c(OC)c3)[nH]c2-c2ccc(OC)cc2)cc1` [Compound 28, 4-(4,5-bis(4-methoxyphenyl)-1H-imidazol-2-yl)-2,6-dimethoxyphenol], inhibition under setting [1] was half-maximal at 20 nM (IC50). This counts as double-digit nanomolar.

`COc1cc(-c2nc(-c3ccc(C)cc3)c[nH]2)cc(OC)c1O` [Compound 29, 2,6-dimethoxy-4-(4-p-tolyl-1H-imidazol-2-yl)phenol]: the IC50 is 100 nM under setting [1] and 100 nM (Table 2, Inhibition of nSMase). Turning to `Oc1c(OC2CCCC2)cc(-c2nc(-c3ccccc3)c(-c3cccs3)[nH]2)cc1OC1CCCC1` [Compound 30, 2,6-bis(cyclopentyloxy)-4-(5-phenyl-4-(thiophen-2-yl)-1H-imidazol-2-yl)phenol], the IC50 under setting [1] stood at 100 nM and 100 nM corresponded to half-maximal inhibition (Table 2, Inhibition of nSMase) (IC50). Take `CCCOc1cc(-c2nc(-c3cccs3)c(-c3ccccc3)[nH]2)cc(OCCC)c1O` [Compound 31, 4-(5-phenyl-4-(thiophen-2-yl)-1H-imidazol-2-yl)-2,6-dipropoxyphenol]: the IC50 is, setting by setting: under setting [1], 40 nM; (Table 2, Inhibition of nSMase) 40 nM. With `CCCCc1[nH]c(-c2cc(OC)c(O)c(OC)c2)nc1C` [Compound 32, 4-(5-butyl-4-methyl-1H-imidazol-2-yl)-2,6-dimethoxyphenol], the IC50 under setting [1] was found to be 60 nM. This counts as double-digit nanomolar. Regarding `CCc1nc(-c2cc(OC)c(O)c(OC)c2)[nH]c1CC` [Compound 33, 4-(4,5-diethyl-1H-imidazol-2-yl)-2,6-dimethoxyphenol], the IC50 is 80 nM under setting [1] and 80 nM (Table 2, Inhibition of nSMase). Take `COc1cc(-c2nc(-c3ccco3)c(-c3ccco3)[nH]2)cc(OC)c1O` [Compound 34, 4-(4,5-di(furan-2-yl)-1H-imidazol-2-yl)-2,6-dimethoxyphenol hydrochloride]: the IC50 came out at 30 nM under setting [1] and 30 nM (Table 2, Inhibition of nSMase). The molecule `COc1cc(-c2nc(C)c(-c3ccccc3)[nH]2)cc(OC)c1O` [Compound 35, 2,6-dimethoxy-4-(4-methyl-5-phenyl-1H-imidazol-2-yl)phenol] came in with an IC50 under setting [1] of 20 nM. Consider `Oc1c(OCC(F)(F)F)cc(-c2nc(-c3ccccc3)c(-c3cccs3)[nH]2)cc1OCC(F)(F)F` [Compound 36, 4-(4-phenyl-5-(thiophen-2-yl)-1H-imidazol-2-yl)-2,6-bis(2,2,2-trifluoroethoxy)phenol], for which the half-maximal inhibitory concentration (IC50) by setting is: under setting [1], 60 nM; (Table 2, Inhibition of nSMase) 60 nM.

Take `CCc1nc(-c2cc(OCC(F)(F)F)c(O)c(OCC(F)(F)F)c2)[nH]c1CC` [Compound 37, 4-(4,5-diethyl-1H-imidazol-2-yl)-2,6-bis(2,2,2-trifluoroethoxy)phenol]: the IC50 runs as follows: under setting [1], 700 nM; (Table 2, Inhibition of nSMase) 700 nM. With `COc1cc(-c2nc(-c3ccc(C)cc3)c(-c3ccc(C)cc3)[nH]2)cc(OC)c1O` [Compound 38, 4-(4,5-di-p-tolyl-1H-imidazol-2-yl)-2,6-dimethoxyphenol], the half-maximal inhibitory concentration (IC50) by setting is: under setting [1], 60 nM; (Table 2, Inhibition of nSMase) 60 nM. With `COc1cc(-c2ncc(C34CC5CC(CC(C5)C3)C4)[nH]2)cc(OC)c1O` [Compound 39, 2,6-dimethoxy-4-(5-adamantyl-1H-imidazol-2-yl)phenol], the IC50 was found to be 200 nM under setting [1] and 200 nM (Table 2, Inhibition of nSMase). Take `CCc1nc(-c2cc(OC)c(O)c(OC)c2)[nH]c1-c1ccccn1` [Compound 40, 4-(4-ethyl-5-(pyridin-2-yl)-1H-imidazol-2-yl)-2,6-dimethoxyphenol hydrochloride]: the IC50 was determined as 500 nM under setting [1] and 500 nM (Table 2, Inhibition of nSMase). With `COc1cc(-c2nc(-c3cccs3)c(C)[nH]2)cc(OC)c1O` [Compound 41, 2,6-dimethoxy-4-(4-methyl-5-(thiophen-2-yl)-1H-imidazol-2-yl)phenol hydrochloride], the IC50 is 10 nM under setting [1] and 10 nM (Table 2, Inhibition of nSMase). For `COc1cc(-c2nc3ccccc3[nH]2)cc(OC)c1O` [Compound 42, 4-(1H-benzo[d]imidazol-2-yl)-2,6-dimethoxyphenol], the IC50 came out at 600 nM under setting [1] and 600 nM (Table 2, Inhibition of nSMase).

`COc1cc(-c2nc3cccnc3[nH]2)cc(OC)c1O` [Compound 43, 4-(3H-imidazo[4,5-b]pyridin-2-yl)-2,6-dimethoxyphenol] showed an IC50 under setting [1] of 4000 nM and an IC50 (Table 2, Inhibition of nSMase) of 4000 nM. Consider `COc1cc(-c2nc3c(C)ccc(C)c3[nH]2)cc(OC)c1O` [Compound 44, 4-(4,7-dimethyl-1H-benzo[d]imidazol-2-yl)-2,6-dimethoxyphenol], for which the half-maximal inhibitory concentration (IC50) runs as follows: under setting [1], 800 nM; (Table 2, Inhibition of nSMase) 800 nM. As for `CC(C)(C)Oc1cc(-c2nc(-c3ccccc3)c(-c3cccs3)[nH]2)cc(OC(C)(C)C)c1O` [Compound 45, 2,6-di-tert-butoxy-4-(4-phenyl-5-(thiophen-2-yl)-1H-imidazol-2-yl)phenol], the IC50 worked out at 400 nM under setting [1] and 400 nM (Table 2, Inhibition of nSMase). `CCCCc1nc(-c2cc(OC)c(O)c(OC)c2)[nH]c1CCCC` [Compound 46, 4-(4,5-dibutyl-1H-imidazol-2-yl)-2,6-dimethoxyphenol]: the IC50 is 200 nM under setting [1] and 200 nM (Table 2, Inhibition of nSMase). Turning to `COc1cc(-c2nc(C(C)C)c(C(C)C)[nH]2)cc(OC)c1O` [Compound 47, 4-(4,5-diisopropyl-1H-imidazol-2-yl)-2,6-dimethoxyphenol], the IC50 was determined as 60 nM under setting [1] and 60 nM (Table 2, Inhibition of nSMase). Molecule `COc1cc(-c2nc(-c3ccccc3)c(C(C)C)[nH]2)cc(OC)c1O` [Compound 48, 4-(5-isopropyl-4-phenyl-1H-imidazol-2-yl)-2,6-dimethoxyphenol] yielded an IC50 under setting [1] of 60 nM and an IC50 (Table 2, Inhibition of nSMase) of 60 nM. `COc1cc(-c2nc(-c3ccccc3)c(-c3cccs3)n2C)cc(OC)c1O` [Compound 3455] registered an IC50 under setting [1] of 60000 nM. On the same count and under the same terms, then `COc1cc(C2=NC3CCCCC3N2)cc(OC)c1O` (centres unmarked) [Compound 3546], with 70000 nM.
